Results as given in paper PMC10266789 (The Journal of Clinical Investigation, 2023).

Legend:
[1] = test system: acetylated α-tubulin in HepG2 cells; experiment: Western blot of acetylated α-tubulin in HepG2 cells; type: cell-based, human; settings: 24 hours, plus 1 µM trichostatin A
Method: Supplemental Figure 1. […] (A) HepG2 cells were treated with FLS- […]
determined by western blot. Total a-tubulin was monitored as a control. (B) MDA-MB-231 cells or (C) MRC-5 fibroblasts were treated with drug for 72h and c-Myc was monitored by western blot with b-actin as a control. Western blots are representative of three independent experiments.
(§1) (1 picture or pasted object on this page, not shown here)

[2] = Host cell cytotoxicity, Akata; type: cell-based; settings: Akata cells (Burkitt lymphoma cell line); human Akata; Epstein-Barr assay
Method: The Akata Burkitt lymphoma cell line is permissive for EBV lytic reactivation through activation of the B cell receptor ([52]). As expected, 24 hours after receptor engagement with anti-IgG, 30% of Akata cells induced surface expression of the late EBV gene gp350, which serves as a proxy for cells that are replicating viral DNA and forming new virions (Figure 3A).

[3] = test system: HCMV TB40/E-mCherry-UL99eGFP; settings: Human betaherpesvirus 5, read-out: HCMV virus yield IC50
[4] = Residual drug levels in MRC-5 cells and supernatant after washout, mass spectrometry; type: in vitro ADME, human
Method: Supplemental Figure 8. […] (A) Uninfected cells
After 24h, supernatant was collected, monolayers were washed 3x to remove drug and cells were replenished with drug-free media.
Supernatants and cells were then assayed for residual drug levels at 2, 24 or 72h post-release. (B-C) Supernatant and cell-associated drug concentrations were determined by mass spectrometry. (D) […]
monolayer of MRC-5 cells. Sampling of the supernatant was conducted after a 24h incubation at 37°C, followed by 3X washes with PBS, collection of the final wash, and replenishment of drug-free medium to the dishes. Supernatant samples were then collected at 24 and 72h post drug-removal. […]
concentrations as determined by mass spectrometry. Mean +/- SD is shown (n=3).
as §1

[5] = test system: Zika virus (strain DAK41525); settings: Zika/human HFF
[6] = test system: HCMV TB40/E-mCherry-UL99eGFP; experiment: Infectivity of HCMV progeny particles (DNase I-resistant viral DNA vs TCID50); type: cell-based, human cytomegalovirus
[7] = Host cell cytotoxicity, Calu3; type: cell-based; settings: Calu3 cells; human Calu3; SARS-CoV-2 assay
[8] = test system: Betacoronavirus 1 (strain OC43); settings: HCoV-OC43/human MRC-5
[9] = Host cell cytotoxicity, PHH; settings: human
[10] = test system: SARS-CoV-2 (strain USA-WA1/2020); experiment: microbe, parasite or virus in culture; settings: Severe acute respiratory syndrome coronavirus 2, Calu-3, in Homo sapiens, read-out: IC50, SARS-CoV-2
[11] = Host cell cytotoxicity, HFF; settings: human, HFF cells
[12] = test system: Hepatitis B virus (genotype D, subtype ayw); settings: Hepatitis B/human PHH
[13] = test system: SARS-CoV-2 (strain USA-WA1/2020); settings: SARS-CoV-2/human Calu3
[14] = Mouse pharmacokinetics, plasma; type: in vivo; settings: single 50 mg/kg p.o., female BALB/c mice
Method: The pharmacokinetics study used fed female BALB/c mice (22 g, n = 3 per time point). Blood samples (~30 μL via saphenous vein puncture) were taken at 0.25, 0.5, 1, 2, 4, 8, and 24 hours. […] The lower limit of quantification was 10 ng/mL. An aliquot of 10 μL plasma sample was mixed with 10 μL terfenadine solvent plus 2 μL methanol. An additional 200 μL of terfenadine solvent was added, and the resulting mixture was vortexed for 1 minute and centrifuged at 1,500g for 15 minutes. The supernatant was diluted 10× with methanol/water (1:1 vol/vol with 0.1% formic acid), and 2 μL aliquots were analyzed using a QTRAP 4000 LC-MS/MS System (Sciex) with a C18 column (Kinetex). Pharmacokinetic parameters were determined with the noncompartmental analysis tool in WinNonlin (Certara).
Plasma samples from groups
Mean +/- SD is presented.

HCMV virions = test system: HCMV virions; parameters: species or system human cytomegalovirus; settings: 1 or 5 μM; 96 hours at 37°C
[15] = test system: Epstein-Barr virus (EBV; strain Akata); experiment: microbe, parasite or virus in culture; settings: human gammaherpesvirus 4, Akata, read-out: IC50, Epstein-Barr
HCMV DNA = experiment: Intracellular HCMV DNA accumulation by qPCR in MRC-5; type: cell-based, human cytomegalovirus; settings: 72 hours
[16] = test system: HCMV TB40/E-mCherry-UL99eGFP; experiment: HCMV virus yield at 72 hpi by TCID50 (3 IU/cell); type: cell-based, human cytomegalovirus; settings: Figure 8C
[17] = 72 hours after drug removal, treated 24 h with 5 µM

Cc1cn(-c2ccc3c(c2)CN(c2ncc(Cc4ccc(-n5cccn5)cc4)s2)CC3)c(C)n1 [FLS-359, 7-(2,4-dimethyl-1H-imidazol-1-yl)-2-(5-{[4-(1H-pyrazol-1-yl)phenyl]methyl}-1,3-thiazol-2-yl)-1,2,3,4-tetrahydroisoquinoline]
increase of acetylated α-tubulin level [1]: about 3 factor | CC50 [2]: > 100 µM | IC50 [3]: 560 nM | removal of drug from culture dishes without cells ([4]; 5 µM in medium, no cells): efficiently removed by washing | drug level in cells [4, 17]: ~ 5 μM | drug level in supernatant [4, 17]: ~ 0.4 μM | SI CC50/IC50 [5]: 104.0 | reduction of particle/infectious unit ratio (infectivity) ([6]; 1.0 μM, 2 hpi to 96 hpi, 1 IU/cell): 14.5 factor | reduced infectivity ([6]; 2.5 or 5.0 μM, 2 hpi to 96 hpi): more than 1,690 fold | reduction in extracellular virus particles ([6]; Figure 8E): approximately 70 fold | reduction of viral infectivity ([6]; Figure 8E, discussion): more than 1,600 fold | CC50 [7]: 15.8 µM | SI CC50/IC50 [8]: >30.1 | CC50 [9]: > 10 µM | IC50 [10]: 300 nM | CC50 [11]: 41.6 µM | SI CC50/IC50 [12]: >2.1 | SI CC50/IC50 [13]: 52.7 | half-life ([14]; female, BALB/c, mouse, in vivo, po, 50 mg/kg, read-out: plasma half-life (T1/2) (converted)): 348 ± 84 min | Cmax ([14]; female, BALB/c, mouse, plasma, po, 50 mg/kg): 89.3 ± 11 µM | AUC(0-inf) ([14]; mouse, plasma, po): 713 µM·h | Tmax ([14]; mouse, plasma, po): 2 h | Cmax ([14]; plasma, 50 mg/kg): 89 µM | effect of incubating virus stock with drug on infectivity (HCMV virions): no significant effect on infectivity | IC50 [15]: 3.8 µM | intracellular viral DNA accumulation (HCMV DNA; 3 IU/cell): compromised | reduction in intracellular viral DNA levels (HCMV DNA; Figure 8B): approximately 3 fold | production of infectious virus ([16]; 72 hpi, TCID50): reduced the production of infectious virus to below the limit of quantification | reduction in infectious virus ([16]; 72 hours): more than 1,000 fold
